ChEMBL document CHEMBL5126508, “Therapeutic potential of quinazoline derivatives for Alzheimer's disease: A comprehensive review” (Eur J Med Chem, 2022)

Tests used:
[1] = Antioxidant activity assessed as radical scavenging at 100 ug/ml by DPPH assay relative to control; format: functional
[2] = target: T1, Cyclin-dependent kinase 5 (Homo sapiens, UniProt Q00535); assay: Inhibition of CDK5 (unknown origin)
Target sequence in this assay (Q00535 whole entry): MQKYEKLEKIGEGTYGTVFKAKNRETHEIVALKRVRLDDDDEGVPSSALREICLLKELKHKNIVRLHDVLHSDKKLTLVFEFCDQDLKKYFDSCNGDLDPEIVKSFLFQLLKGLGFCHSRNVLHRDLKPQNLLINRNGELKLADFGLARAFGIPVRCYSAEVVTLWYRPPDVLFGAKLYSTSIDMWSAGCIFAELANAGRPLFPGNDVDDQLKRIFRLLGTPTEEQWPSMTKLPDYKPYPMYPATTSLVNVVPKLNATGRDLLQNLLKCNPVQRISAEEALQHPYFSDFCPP

[3] = target: Cyclin-dependent kinase 1 (Homo sapiens, UniProt P06493); assay: Inhibition of CDK1 (unknown origin)
Chain of Cyclin-dependent kinase 1 (P06493 whole entry): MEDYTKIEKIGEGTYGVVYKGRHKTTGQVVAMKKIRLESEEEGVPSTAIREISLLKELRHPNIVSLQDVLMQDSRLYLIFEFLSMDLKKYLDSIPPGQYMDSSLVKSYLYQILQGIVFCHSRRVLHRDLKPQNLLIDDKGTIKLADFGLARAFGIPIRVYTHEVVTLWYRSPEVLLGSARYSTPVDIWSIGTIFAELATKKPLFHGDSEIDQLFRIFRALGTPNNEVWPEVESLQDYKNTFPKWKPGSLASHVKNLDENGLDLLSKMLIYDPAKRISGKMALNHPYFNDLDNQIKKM

[4] = target: T2, Glycogen synthase kinase-3 (Homo sapiens, UniProt P49840+P49841); assay: Inhibition of GSK3alpha/beta (unknown origin); format: protein assay
T2 sequence (P49840 whole entry, looked up): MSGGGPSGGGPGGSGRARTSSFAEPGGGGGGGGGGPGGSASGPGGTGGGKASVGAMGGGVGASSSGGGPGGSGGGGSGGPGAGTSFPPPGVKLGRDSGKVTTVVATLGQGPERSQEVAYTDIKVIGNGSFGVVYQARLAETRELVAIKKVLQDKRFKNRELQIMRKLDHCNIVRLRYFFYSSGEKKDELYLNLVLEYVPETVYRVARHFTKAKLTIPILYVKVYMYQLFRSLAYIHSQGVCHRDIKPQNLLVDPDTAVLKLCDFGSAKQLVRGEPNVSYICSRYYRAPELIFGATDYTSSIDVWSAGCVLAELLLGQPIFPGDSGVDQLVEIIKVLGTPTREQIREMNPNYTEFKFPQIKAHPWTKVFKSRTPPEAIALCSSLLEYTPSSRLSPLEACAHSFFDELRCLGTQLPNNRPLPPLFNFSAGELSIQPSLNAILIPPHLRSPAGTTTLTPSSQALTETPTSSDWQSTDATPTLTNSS
T2 sequence (P49841 whole entry, looked up): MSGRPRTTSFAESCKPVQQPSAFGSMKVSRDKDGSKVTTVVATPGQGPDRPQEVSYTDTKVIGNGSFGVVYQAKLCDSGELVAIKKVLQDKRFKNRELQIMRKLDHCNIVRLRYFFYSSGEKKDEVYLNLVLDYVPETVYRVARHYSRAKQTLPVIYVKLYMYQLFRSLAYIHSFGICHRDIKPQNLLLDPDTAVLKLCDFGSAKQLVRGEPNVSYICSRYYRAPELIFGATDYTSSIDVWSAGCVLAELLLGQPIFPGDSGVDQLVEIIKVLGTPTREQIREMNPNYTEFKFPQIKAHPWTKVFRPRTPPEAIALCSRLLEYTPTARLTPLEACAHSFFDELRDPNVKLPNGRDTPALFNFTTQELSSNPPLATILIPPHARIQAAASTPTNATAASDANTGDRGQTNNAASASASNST

[5] = target: Cyclin-dependent kinase 3 (Homo sapiens, UniProt Q00526); assay: Inhibition of CDK3 (unknown origin)
[6] = target: Cyclin-dependent kinase 4 (Homo sapiens, UniProt P11802); assay: Inhibition of CDK4 (unknown origin)
[7] = target: Cyclin-dependent kinase 2 (Homo sapiens, UniProt P24941); assay: Inhibition of CDK2 (unknown origin)
[8] = target: T3, Cholinesterase (Equus caballus, UniProt P81908); assay: Inhibition of equine serum BuChE incubated measured after 25 mins by spectrophotometric analysis; format: cell-free
T3 sequence (P81908 whole entry): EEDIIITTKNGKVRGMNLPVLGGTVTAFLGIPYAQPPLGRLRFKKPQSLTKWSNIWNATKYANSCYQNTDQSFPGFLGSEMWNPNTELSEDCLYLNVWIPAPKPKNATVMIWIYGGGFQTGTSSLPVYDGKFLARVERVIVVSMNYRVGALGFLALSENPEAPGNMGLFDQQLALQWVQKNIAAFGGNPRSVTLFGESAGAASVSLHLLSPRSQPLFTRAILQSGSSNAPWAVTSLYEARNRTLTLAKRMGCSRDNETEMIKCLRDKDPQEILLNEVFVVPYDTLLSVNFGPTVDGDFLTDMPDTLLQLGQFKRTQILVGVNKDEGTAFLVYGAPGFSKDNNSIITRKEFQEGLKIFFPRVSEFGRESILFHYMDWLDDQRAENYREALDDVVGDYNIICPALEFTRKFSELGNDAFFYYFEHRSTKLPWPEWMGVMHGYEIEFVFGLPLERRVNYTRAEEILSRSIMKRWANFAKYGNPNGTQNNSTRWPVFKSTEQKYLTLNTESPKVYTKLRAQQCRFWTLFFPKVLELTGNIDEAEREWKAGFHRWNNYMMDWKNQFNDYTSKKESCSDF

[9] = target: T4, Acetylcholinesterase (Electrophorus electricus, UniProt O42275); assay: Inhibition of electric eel AChE incubated measured after 25 mins by spectrophotometric analysis
T4 sequence (O42275 whole entry): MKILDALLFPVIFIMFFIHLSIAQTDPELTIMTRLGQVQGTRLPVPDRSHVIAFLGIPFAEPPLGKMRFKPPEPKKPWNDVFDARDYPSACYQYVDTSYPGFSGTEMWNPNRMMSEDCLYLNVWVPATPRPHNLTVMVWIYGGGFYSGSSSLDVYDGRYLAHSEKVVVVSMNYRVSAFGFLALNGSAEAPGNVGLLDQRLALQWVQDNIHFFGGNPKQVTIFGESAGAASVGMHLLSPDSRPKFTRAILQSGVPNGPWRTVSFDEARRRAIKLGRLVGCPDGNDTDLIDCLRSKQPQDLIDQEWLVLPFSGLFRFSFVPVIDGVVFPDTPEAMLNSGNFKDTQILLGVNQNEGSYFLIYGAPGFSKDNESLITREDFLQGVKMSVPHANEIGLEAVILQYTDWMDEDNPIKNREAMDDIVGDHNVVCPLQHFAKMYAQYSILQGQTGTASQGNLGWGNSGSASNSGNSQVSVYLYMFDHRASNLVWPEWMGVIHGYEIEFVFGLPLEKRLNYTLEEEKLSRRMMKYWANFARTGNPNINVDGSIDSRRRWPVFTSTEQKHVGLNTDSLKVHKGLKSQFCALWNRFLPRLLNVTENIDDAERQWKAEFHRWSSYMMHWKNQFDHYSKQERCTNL

[10] = Ratio of IC50 for electric eel AChE to ratio of IC50 for equine BuChE
[11] = target: T5, Beta-secretase 1 (Homo sapiens, UniProt P56817); assay: Inhibition of recombinant human BACE1 in human SH-SY5Y cells using fluorogenic 7-methoxycoumarin-4-yl)acetyl-Ser-Glu-Val-Asn-Leu-Asp-Ala-Glu-Phe-ArgLys(2, 4-dinitrophenyl)-Arg-Arg-NH2 as substrate measured every 5 mins for 120 mins by WCA; format: cell-based
T5 sequence (P56817 whole entry): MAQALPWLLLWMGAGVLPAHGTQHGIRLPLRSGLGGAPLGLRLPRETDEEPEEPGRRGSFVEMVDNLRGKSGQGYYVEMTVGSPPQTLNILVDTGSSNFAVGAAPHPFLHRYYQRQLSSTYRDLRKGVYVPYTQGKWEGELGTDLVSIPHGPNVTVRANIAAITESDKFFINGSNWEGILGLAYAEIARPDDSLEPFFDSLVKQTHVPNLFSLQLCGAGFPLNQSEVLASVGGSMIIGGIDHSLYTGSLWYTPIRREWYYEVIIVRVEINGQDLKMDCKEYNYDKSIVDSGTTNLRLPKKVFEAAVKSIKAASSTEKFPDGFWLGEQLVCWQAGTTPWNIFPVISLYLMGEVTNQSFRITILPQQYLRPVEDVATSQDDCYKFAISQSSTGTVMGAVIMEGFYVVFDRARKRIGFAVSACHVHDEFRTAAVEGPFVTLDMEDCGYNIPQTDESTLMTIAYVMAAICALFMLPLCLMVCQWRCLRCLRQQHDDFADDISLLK

[12] = target: T5, Beta-secretase 1; assay: Inhibition of recombinant human BACE1 using fluorogenic 7-methoxycoumarin-4-yl)acetyl-Ser-Glu-Val-Asn-Leu-Asp-Ala-Glu-Phe-ArgLys(2, 4-dinitrophenyl)-Arg-Arg-NH2 as substrate measured every 5 mins for 120 mins by CFA
[13] = tested on: SH-SY5Y; assay: Cytotoxicity against human SH-SY5Y cells; format: functional, cell-based
[14] = Inhibition of PDE7 (unknown origin); set-up: species or system Homo sapiens
[15] = target: T4, Acetylcholinesterase; assay: Inhibition of electric eel AChE incubated for 25 mins by Ellman's method
[16] = target: T6, Cholinesterase (Homo sapiens, UniProt P06276); assay: Inhibition of BuChE (unknown origin) at 100 uM relative to control
T6 sequence (P06276 whole entry): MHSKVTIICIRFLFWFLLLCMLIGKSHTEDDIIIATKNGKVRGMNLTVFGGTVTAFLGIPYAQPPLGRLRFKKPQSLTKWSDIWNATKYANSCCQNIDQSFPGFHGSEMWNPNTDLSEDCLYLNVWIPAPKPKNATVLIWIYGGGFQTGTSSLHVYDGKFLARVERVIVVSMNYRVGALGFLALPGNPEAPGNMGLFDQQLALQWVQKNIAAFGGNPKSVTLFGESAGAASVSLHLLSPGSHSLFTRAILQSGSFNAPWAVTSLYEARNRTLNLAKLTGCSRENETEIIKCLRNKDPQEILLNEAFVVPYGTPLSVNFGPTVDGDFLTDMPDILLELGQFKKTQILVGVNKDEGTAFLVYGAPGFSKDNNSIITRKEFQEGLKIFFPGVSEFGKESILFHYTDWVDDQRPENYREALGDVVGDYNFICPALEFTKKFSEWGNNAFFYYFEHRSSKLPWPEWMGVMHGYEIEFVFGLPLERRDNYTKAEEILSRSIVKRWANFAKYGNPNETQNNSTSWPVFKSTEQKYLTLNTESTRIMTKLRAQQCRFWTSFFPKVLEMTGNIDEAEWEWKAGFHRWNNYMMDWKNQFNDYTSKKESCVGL

[17] = target: T7, Acetylcholinesterase (Homo sapiens, UniProt P22303); assay: Inhibition of AChE (unknown origin)
T7 sequence (P22303 whole entry): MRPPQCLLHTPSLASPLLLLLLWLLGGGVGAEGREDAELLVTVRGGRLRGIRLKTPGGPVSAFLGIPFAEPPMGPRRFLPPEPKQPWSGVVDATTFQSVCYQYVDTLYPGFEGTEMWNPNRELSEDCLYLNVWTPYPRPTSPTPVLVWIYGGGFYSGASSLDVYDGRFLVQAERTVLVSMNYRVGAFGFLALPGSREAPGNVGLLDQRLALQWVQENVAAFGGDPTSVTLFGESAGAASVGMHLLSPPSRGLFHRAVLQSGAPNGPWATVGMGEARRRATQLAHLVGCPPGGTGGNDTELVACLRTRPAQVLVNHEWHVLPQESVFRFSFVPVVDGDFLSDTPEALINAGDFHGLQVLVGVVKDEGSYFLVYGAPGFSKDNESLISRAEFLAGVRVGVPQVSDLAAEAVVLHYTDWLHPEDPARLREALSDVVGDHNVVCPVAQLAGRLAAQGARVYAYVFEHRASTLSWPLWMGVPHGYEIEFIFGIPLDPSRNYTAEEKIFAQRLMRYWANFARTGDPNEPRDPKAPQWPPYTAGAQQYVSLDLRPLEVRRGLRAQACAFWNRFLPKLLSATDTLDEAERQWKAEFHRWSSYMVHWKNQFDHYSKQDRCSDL

[18] = target: T6, Cholinesterase; assay: Inhibition of BuChE (unknown origin)
[19] = target: T1, Cyclin-dependent kinase 5; assay: Inhibition of CDK5 (unknown origin) at 1 uM relative to control
Target sequence in this assay (Q00535 whole entry, looked up): as the sequence (Q00535 whole entry) above

[20] = target: T2, Glycogen synthase kinase-3; assay: Inhibition of GSK3alpha/beta (unknown origin) at 1 uM relative to control; format: protein assay
[21] = target: Dual specificity tyrosine-phosphorylation-regulated kinase 1A (Homo sapiens, UniProt Q13627); assay: Inhibition of DYRK1A (unknown origin)
[22] = target: T8, Casein kinase I delta/epsilon (Homo sapiens, UniProt P48730+P49674); assay: Inhibition of CK1delta/epsilon (unknown origin); format: protein-complex assay
[23] = target: T7, Acetylcholinesterase; assay: Inhibition of human AChE
[24] = target: T4, Acetylcholinesterase; assay: Inhibition of electric eel AChE
[25] = target: T3, Cholinesterase; assay: Inhibition of equine serum BuChE
[26] = Ratio of IC50 for equine BuChE to IC50 for electric eel AChE
[27] = target: T9, Amine oxidase [flavin-containing] B (Homo sapiens, UniProt P27338); assay: Inhibition of MAO-B (unknown origin)
T9 sequence (P27338 whole entry): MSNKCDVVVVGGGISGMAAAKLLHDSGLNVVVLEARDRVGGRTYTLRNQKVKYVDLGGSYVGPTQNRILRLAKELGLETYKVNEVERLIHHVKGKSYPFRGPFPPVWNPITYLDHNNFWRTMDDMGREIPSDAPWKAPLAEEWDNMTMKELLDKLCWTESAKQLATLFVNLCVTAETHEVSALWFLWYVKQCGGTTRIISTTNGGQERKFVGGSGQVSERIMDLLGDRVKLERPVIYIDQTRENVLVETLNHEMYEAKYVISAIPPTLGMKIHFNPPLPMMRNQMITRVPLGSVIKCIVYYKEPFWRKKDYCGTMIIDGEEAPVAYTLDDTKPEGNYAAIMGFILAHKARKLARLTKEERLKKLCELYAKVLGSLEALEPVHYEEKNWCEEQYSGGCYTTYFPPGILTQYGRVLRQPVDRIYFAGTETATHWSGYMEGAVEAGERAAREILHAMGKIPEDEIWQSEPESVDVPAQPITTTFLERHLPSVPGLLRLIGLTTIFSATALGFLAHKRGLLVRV

[28] = target: T10, Amine oxidase [flavin-containing] A (Homo sapiens, UniProt P21397); assay: Inhibition of MAO-A (unknown origin)
T10 sequence (P21397 whole entry): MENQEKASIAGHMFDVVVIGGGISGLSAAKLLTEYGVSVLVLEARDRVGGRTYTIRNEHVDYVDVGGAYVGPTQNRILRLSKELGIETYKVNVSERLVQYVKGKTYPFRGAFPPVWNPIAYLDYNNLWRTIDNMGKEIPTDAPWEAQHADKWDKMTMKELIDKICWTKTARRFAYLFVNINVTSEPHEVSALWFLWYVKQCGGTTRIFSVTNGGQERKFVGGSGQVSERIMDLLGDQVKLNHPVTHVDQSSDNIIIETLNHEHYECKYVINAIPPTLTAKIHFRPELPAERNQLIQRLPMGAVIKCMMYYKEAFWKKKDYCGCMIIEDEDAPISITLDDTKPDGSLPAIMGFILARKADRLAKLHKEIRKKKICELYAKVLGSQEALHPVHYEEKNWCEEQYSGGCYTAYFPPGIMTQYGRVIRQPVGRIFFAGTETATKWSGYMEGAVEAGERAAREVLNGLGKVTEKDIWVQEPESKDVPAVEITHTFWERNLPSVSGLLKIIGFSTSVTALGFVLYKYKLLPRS

[29] = target: T8, Casein kinase I delta/epsilon; assay: Inhibition of CK1delta/epsilon (unknown origin) at 1 uM relative to control; format: protein-complex assay
[30] = target: T4, Acetylcholinesterase; assay: Inhibition of electric eel AChE using acetylthiocholine incubated for 30 mins by measuring hydrolysis of substrate by Ellman's method

CSc1nc2nc(NN)c3ccccc3n2n1
inhibition [1]: 85.9%

COC(=N)c1nc2ccc3ncnc(Nc4ccc(OC)cc4)c3c2s1
IC50 [2]: > 10 µM | IC50 [3]: > 10 µM | IC50 [4]: 0.2 µM

COC(=N)c1nc2ccc3ncnc(Nc4ccc(Cl)cc4Cl)c3c2s1
IC50 [3]: 0.0228 µM | IC50 [5]: > 10 µM | IC50 [6]: 0.059 µM | IC50 [7]: 0.0888 µM

CC1(c2ccc(Cl)cc2)NC(=O)c2cc(Br)cc(Br)c2N1 (stereo unspecified)
IC50 [8]: 3.7 µM | IC50 [9]: 1.6 µM | Ratio IC50 [10]: 2.3

CC1c2cc(Oc3ccccc3)ccc2N=C(N)N1CCCC(=O)N(Cc1cnn(C)c1)C1CCCCC1 (stereo unspecified)
IC50 [11]: 0.14 µM | IC50 [12]: 0.38 µM | IC50 [13]: 12.5 µM

O=c1c2cccc(Cl)c2[nH]c(=S)n1-c1ccccc1Br
IC50 [14]: 1.8 µM

Cc1ccccc1-n1c(SCC(=O)N/N=C/c2ccc(Br)cc2)nc2ccccc2c1=O
IC50 [15]: 210 µM | inhibition [16]: 6.8%

COC(=N)c1nc2ccc3ncnc(Nc4ccc(Br)cc4F)c3c2s1
IC50 [2]: > 10 µM | IC50 [3]: > 10 µM | IC50 [4]: 0.16 µM

O=c1c2ccccc2nc2n1CCC2 [DEOXYVASICINONE]
IC50 [17]: 35.2 µM | IC50 [18]: 17.8 µM

c1ccc2c(c1)CN1CCCC1=N2
IC50 [17]: 2.37 µM | IC50 [18]: 0.04 µM

OC1CCN2Cc3ccccc3N=C12 (stereo unspecified)
IC50 [17]: 13.7 µM | IC50 [18]: 2.6 µM

CC(C)CC1(CC(C)C)NC(=O)c2ccccc2N1Cc1ccc(Cl)cc1
IC50 [8]: 1.56 µM | Ratio IC50 [10]: 2.6

Nc1ncc2cc3cnccc3cc2n1
inhibition [19]: > 10% | inhibition [20]: > 10% | IC50 [21]: 0.18 µM | IC50 [22]: 0.8 µM

c1ccc2c(c1)CCCN1Cc3cc(OCCCN4CCCCC4)ccc3N=C21
IC50 [23]: 0.535 µM | IC50 [24]: 0.0571 µM | IC50 [25]: 2.67 µM | Ratio IC50 [26]: 47

C=CCNC(=S)NNc1nc2nc(SC)nn2c2ccccc12
inhibition [1]: 91%

O=C(O)C1=Nc2ccccc2CN1
IC50 [17]: 345 µM | IC50 [18]: > 1000 µM

NNC(=O)CN1C(=O)c2ccccc2NC1c1ccc2c(c1)OCO2 (stereo unspecified)
IC50 [27]: 83 µM | IC50 [28]: 0.0021 µM

Cn1c(N/N=C(\C=C\c2cccc(Cl)c2)c2ccccc2)nc2ccccc2c1=O
IC50 [27]: 1.15 µM | IC50 [28]: 468 µM

c1cc2c(cc1OCCCN1CCCCC1)CN1CCCC1=N2
IC50 [23]: 1.1 µM | IC50 [24]: 0.0692 µM | IC50 [25]: 0.122 µM | Ratio IC50 [26]: 1.76

Nc1ncc2ccc3ccncc3c2n1
inhibition [19]: 100% | inhibition [29]: 98% | inhibition [20]: 98% | IC50 [21]: 2.18 µM

CC1(c2ccc(Cl)cc2)Nc2cc(Cl)ccc2-c2ccnn21 (stereo unspecified)
IC50 [30]: 358 µM | IC50 [18]: > 379 µM

O=c1c2ccccc2nc2n1C(C1CN=Cc3[nH]c4ccccc4c31)CC2O (stereo unspecified)
IC50 [17]: 40.5 µM | IC50 [18]: 9.26 µM

O=C(CCN1CCCCC1)Nc1ccc2nc(-c3cc4ccccc4[nH]3)[nH]c(=O)c2c1
IC50 [18]: 7.32 µM
